Laboratory results as given in patent publication US12486240B2, “Oxadiazole compounds for controlling or preventing phytopathogenic fungi” (PI INDUSTRIES LTD., priority 2019, dated 2025).

tested on: Botrytis cinerea; assay: Botrytis cinerea mycelial radial growth test on potato dextrose agar; assay type: cell-based; conditions: 300 ppm, 22° C., 90% relative humidity, seven days

**Q.** How did the “control (radial growth compared to untreated control)” value turn out when `COCCN(C)c1c(Nc2ccc(-c3noc(C(F)(F)F)n3)cc2)c(=O)c1=O` [Compound 7, 3-((2-methoxyethyl)(methyl)amino)-4-((4-(5-(trifluoromethyl)-1,2,4-oxadiazol-3-yl)phenyl)amino)cyclobut-3-ene-1,2-dione] was run?
**A.** ≥ 70%

tested on: Phakopsora pachyrhizi; assay: Phakopsora pachyrhizi test on soybean (preventive spray); assay type: in vivo; conditions: preventive spray on soybean plants, inoculated one day after treatment, rated 3, 7, 10 and 15 days after application, read-out: Efficacy (% control) from disease severity rating versus untreated control
Description: Example 5: Phakopsora pachyrhizi Test on Soybean Compounds were dissolved in 2% dimethyl sulfoxide/acetone and then mixed with water containing an emulsifier to a calibrated spray volume of 50 mL. This 50 mL spray solution was poured into spray bottles for further applications. To test the preventive activity of compounds, healthy young Soybean plants raised in the greenhouse were sprayed with the active compound preparation at the stated application rates inside the spray cabinets using hollow cone nozzles. One day after treatment, the plants were inoculated with a spore suspension containing 2×10^5 Phakopsora pachyrhizi conidia. The inoculated plants were then kept in a greenhouse chamber at 22-24° C. temperature and 80-90% relative humidity for disease expression. A visual assessment of the compound's performance was carried out by rating the disease severity (0-100% scale) on treated plants 3, 7, 10 and 15 days after application. Efficacy (% control) of the compounds was calculated by comparing the disease rating in the treatment with the one of the untreated control. The sprayed plants were also assessed for plant compatibility by recording symptoms like necrosis, chlorosis and stunting.

**Q.** For `CCN(C)c1c(Nc2ccc(-c3noc(C(F)(F)F)n3)cc2)c(=O)c1=O` [Compound 3, 3-(ethyl(methyl)amino)-4-((4-(5-(trifluoromethyl)-1,2,4-oxadiazol-3-yl)phenyl)amino)cyclobut-3-ene-1,2-dione], which pest or weed control at 500 ppm is on record?
**A.** ≥ 70%

**Q.** With `COCCN(C)c1c(Nc2ccc(-c3noc(C(F)(F)F)n3)cc2)c(=O)c1=O` [Compound 7, 3-((2-methoxyethyl)(methyl)amino)-4-((4-(5-(trifluoromethyl)-1,2,4-oxadiazol-3-yl)phenyl)amino)cyclobut-3-ene-1,2-dione] as the compound, how does the pest or weed control at 500 ppm read?
**A.** ≥ 70%

**Q.** With `O=c1c(NCc2ccc(-c3noc(C(F)(F)F)n3)cc2)c(N2CCOCC2)c1=O` [Compound 17, 3-morpholino-4-((4-(5-(trifluoromethyl)-1,2,4-oxadiazol-3-yl)benzyl)amino)cyclobut-3-ene-1,2-dione] as the compound, how does the pest or weed control at 500 ppm read?
**A.** ≥ 70%

**Q.** With `COc1c(NCc2ccc(-c3noc(C(F)(F)F)n3)cc2)c(=O)c1=O` [Compound 18, 3-methoxy-4-((4-(5-(trifluoromethyl)-1,2,4-oxadiazol-3-yl)benzyl)amino)cyclobut-3-ene-1,2-dione] as the compound, how does the pest or weed control at 500 ppm read?
**A.** ≥ 70%

**Q.** `COCCNc1c(NCc2ccc(-c3noc(C(F)(F)F)n3)cc2)c(=O)c1=O` [Compound 19, 3-((2-methoxyethyl)amino)-4-((4-(5-(trifluoromethyl)-1,2,4-oxadiazol-3-yl)benzyl)amino)cyclobut-3-ene-1,2-dione] was tested. Which pest or weed control at 500 ppm did it give?
**A.** ≥ 70%

**Q.** `C=CCNc1c(NCc2ccc(-c3noc(C(F)(F)F)n3)cc2)c(=O)c1=O` [Compound 20, 3-(allylamino)-4-((4-(5-(trifluoromethyl)-1,2,4-oxadiazol-3-yl)benzyl)amino)cyclobut-3-ene-1,2-dione] was tested. Which pest or weed control at 500 ppm did it give?
**A.** ≥ 70%

**Q.** For `O=c1c(NCc2ccc(-c3noc(C(F)(F)F)n3)cc2)c(N2CCSCC2)c1=O` [Compound 31, 3-thiomorpholino-4-((4-(5-(trifluoromethyl)-1,2,4-oxadiazol-3-yl)benzyl)amino)cyclobut-3-ene-1,2-dione], which pest or weed control at 500 ppm is on record?
**A.** ≥ 70%

**Q.** Which pest or weed control at 500 ppm does the source give for `O=c1c(NCc2ccc(-c3noc(C(F)(F)F)n3)cc2)c(N2CC(O)C2)c1=O` [Compound 32, 3-(3-hydroxyazetidin-1-yl)-4-((4-(5-(trifluoromethyl)-1,2,4-oxadiazol-3-yl)benzyl)amino)cyclobut-3-ene-1,2-dione] here?
**A.** ≥ 70%

**Q.** How did the pest or weed control at 500 ppm turn out when `O=c1c(NCc2ccc(-c3noc(C(F)(F)F)n3)cc2)c(N2CCC(F)(F)C2)c1=O` [Compound 33, 3-(3,3-difluoropyrrolidin-1-yl)-4-((4-(5-(trifluoromethyl)-1,2,4-oxadiazol-3-yl)benzyl)amino)cyclobut-3-ene-1,2-dione] was run?
**A.** ≥ 70%

**Q.** With `COc1c(N(C)Cc2ccc(-c3noc(C(F)(F)F)n3)cc2)c(=O)c1=O` [Compound 41, 3-methoxy-4-(methyl(4-(5-(trifluoromethyl)-1,2,4-oxadiazol-3-yl)benzyl)amino)cyclobut-3-ene-1,2-dione] as the compound, how does the pest or weed control at 500 ppm read?
**A.** ≥ 70%

**Q.** For `CN(Cc1ccc(-c2noc(C(F)(F)F)n2)cc1)c1c(N2CCOCC2)c(=O)c1=O` [Compound 42, 3-(methyl(4-(5-(trifluoromethyl)-1,2,4-oxadiazol-3-yl)benzyl)amino)-4-morpholinocyclobut-3-ene-1,2-dione], which pest or weed control at 500 ppm is on record?
**A.** ≥ 70%

**Q.** `CN(Cc1ccc(-c2noc(C(F)(F)F)n2)cc1)c1c(N2CCCC2)c(=O)c1=O` [Compound 44, 3-(methyl(4-(5-(trifluoromethyl)-1,2,4-oxadiazol-3-yl)benzyl)amino)-4-(pyrrolidin-1-yl)cyclobut-3-ene-1,2-dione] was tested. Which pest or weed control at 500 ppm did it give?
**A.** ≥ 70%

**Q.** `COC1CN(c2c(N(C)Cc3ccc(-c4noc(C(F)(F)F)n4)cc3)c(=O)c2=O)C1` [Compound 45, 3-(3-methoxyazetidin-1-yl)-4-(methyl(4-(5-(trifluoromethyl)-1,2,4-oxadiazol-3-yl)benzyl)amino)cyclobut-3-ene-1,2-dione] was tested. Which pest or weed control at 500 ppm did it give?
**A.** ≥ 70%

**Q.** `CN(Cc1ccc(-c2noc(C(F)(F)F)n2)cc1)c1c(N2CC(C#N)C2)c(=O)c1=O` [Compound 46, 1-(2-(methyl(4-(5-(trifluoromethyl)-1,2,4-oxadiazol-3-yl)benzyl)amino)-3,4-dioxocyclobut-1-en-1-yl)azetidine-3-carbonitrile] was tested. Which pest or weed control at 500 ppm did it give?
**A.** ≥ 70%

**Q.** Which pest or weed control at 500 ppm does the source give for `CN(Cc1ccc(-c2noc(C(F)(F)F)n2)cc1)c1c(N2CCC2)c(=O)c1=O` [Compound 47, 3-(azetidin-1-yl)-4-(methyl(4-(5-(trifluoromethyl)-1,2,4-oxadiazol-3-yl)benzyl)amino)cyclobut-3-ene-1,2-dione] here?
**A.** ≥ 70%

**Q.** Which pest or weed control at 500 ppm does the source give for `CC(C)OC1CN(c2c(N(C)Cc3ccc(-c4noc(C(F)(F)F)n4)cc3)c(=O)c2=O)C1` [Compound 48, 3-(3-isopropoxyazetidin-1-yl)-4-(methyl(4-(5-(trifluoromethyl)-1,2,4-oxadiazol-3-yl)benzyl)amino)cyclobut-3-ene-1,2-dione] here?
**A.** ≥ 70%

**Q.** How did the pest or weed control at 500 ppm turn out when `CN(Cc1ccc(-c2noc(C(F)(F)F)n2)cc1)c1c(N2CC3(COC3)C2)c(=O)c1=O` [Compound 49, 3-(methyl(4-(5-(trifluoromethyl)-1,2,4-oxadiazol-3-yl)benzyl)amino)-4-(2-oxa-6-azaspiro[3.3]heptan-6-yl)cyclobut-3-ene-1,2-dione] was run?
**A.** ≥ 70%

**Q.** For `CN(Cc1ccc(-c2noc(C(F)(F)F)n2)cc1)c1c(N2CCC(F)(F)C2)c(=O)c1=O` [Compound 50, 3-(3,3-difluoropyrrolidin-1-yl)-4-(methyl(4-(5-(trifluoromethyl)-1,2,4-oxadiazol-3-yl)benzyl)amino)cyclobut-3-ene-1,2-dione], which pest or weed control at 500 ppm is on record?
**A.** ≥ 70%

**Q.** Which pest or weed control at 500 ppm does the source give for `CC(C)Nc1c(N(C)Cc2ccc(-c3noc(C(F)(F)F)n3)cc2)c(=O)c1=O` [Compound 51, 3-(isopropylamino)-4-(methyl(4-(5-(trifluoromethyl)-1,2,4-oxadiazol-3-yl)benzyl)amino)cyclobut-3-ene-1,2-dione] here?
**A.** ≥ 70%

**Q.** How did the pest or weed control at 500 ppm turn out when `CN1CCN(c2c(N(C)Cc3ccc(-c4noc(C(F)(F)F)n4)cc3)c(=O)c2=O)CC1` [Compound 52, 3-(methyl(4-(5-(trifluoromethyl)-1,2,4-oxadiazol-3-yl)benzyl)amino)-4-(4-methylpiperazin-1-yl)cyclobut-3-ene-1,2-dione] was run?
**A.** ≥ 70%

**Q.** How did the pest or weed control at 500 ppm turn out when `CCN(C)c1c(N(C)Cc2ccc(-c3noc(C(F)(F)F)n3)cc2)c(=O)c1=O` [Compound 53, 3-(ethyl(methyl)amino)-4-(methyl(4-(5-(trifluoromethyl)-1,2,4-oxadiazol-3-yl)benzyl)amino)cyclobut-3-ene-1,2-dione] was run?
**A.** ≥ 70%

**Q.** Which pest or weed control at 500 ppm does the source give for `COC1CCN(c2c(N(C)Cc3ccc(-c4noc(C(F)(F)F)n4)cc3)c(=O)c2=O)C1` (centres unmarked) [Compound 54, 3-(3-methoxypyrrolidin-1-yl)-4-(methyl(4-(5-(trifluoromethyl)-1,2,4-oxadiazol-3-yl)benzyl)amino)cyclobut-3-ene-1,2-dione] here?
**A.** ≥ 70%

**Q.** For `CN(Cc1ccc(-c2noc(C(F)(F)F)n2)cc1)c1c(N2CCC(F)C2)c(=O)c1=O` (centres unmarked) [Compound 55, 3-(3-fluoropyrrolidin-1-yl)-4-(methyl(4-(5-(trifluoromethyl)-1,2,4-oxadiazol-3-yl)benzyl)amino)cyclobut-3-ene-1,2-dione], which pest or weed control at 500 ppm is on record?
**A.** ≥ 70%

**Q.** `C=CCNc1c(N(C)Cc2ccc(-c3noc(C(F)(F)F)n3)cc2)c(=O)c1=O` [Compound 56, 3-(allylamino)-4-(methyl(4-(5-(trifluoromethyl)-1,2,4-oxadiazol-3-yl)benzyl)amino)cyclobut-3-ene-1,2-dione] was tested. Which pest or weed control at 500 ppm did it give?
**A.** ≥ 70%

tested on: Rhizoctonia solani; assay: Rhizoctonia solani mycelial radial growth test on potato dextrose agar; assay type: cell-based; conditions: 300 ppm, 25° C., 60% relative humidity, seven days

**Q.** With `CCN(C)c1c(Nc2ccc(-c3noc(C(F)(F)F)n3)cc2)c(=O)c1=O` [Compound 3, 3-(ethyl(methyl)amino)-4-((4-(5-(trifluoromethyl)-1,2,4-oxadiazol-3-yl)phenyl)amino)cyclobut-3-ene-1,2-dione] as the compound, how does the “control (radial growth compared to untreated control)” value read?
**A.** ≥ 70%
